Values joined by “and” are separate entries in the source; they are usually repeats but may differ in a detail not shown here. Equal values may be shown once. “Also recorded” adds a separate entry of the source. Where a name gives a salt, the structure may show the parent alone. Read-outs that look alike come from different tables or passages of the source.
How the values were obtained:
TRPA1 = target: T1, TRPA1 (Rattus norvegicus, UniProt Q6RI86); experiment: cell-based
T1 construct: TRPA1 natively expressed on the central terminals of dorsal root ganglion neurons; from tissue; host or cells: lumbar spinal cord homogenate (synaptosomes) of adult male Sprague Dawley rats

spinal cord synaptosomes = experiment: KCl (depolarization)-evoked CGRP release from rat spinal cord homogenate, ELISA; assay type: cell-based; details: for CGRP release over basal release: n = 3
[1] = test system: voltage‐gated calcium channels (VGCCs); assay type: cell-based, rat
[2] = test system: voltage‐gated calcium channels (VGCCs); assay type: cell-based, rat; remark: listed apart in the source
[3] = test system: recombinantly‐expressed TRPA1 channels; details: cited from earlier work
TRPM3 = test system: TRPM3; design: method as in Wagner et al. 2008; details: ref Wagner et al. 2008; read-out: EC50 for activation of TRPM3; cited from earlier work
T‐type VGCCs = test system: T‐type VGCCs; design: method as in Martin et al. 2000; details: ref Martin et al. 2000; cited from earlier work

T1 sequence (Q6RI86 whole entry): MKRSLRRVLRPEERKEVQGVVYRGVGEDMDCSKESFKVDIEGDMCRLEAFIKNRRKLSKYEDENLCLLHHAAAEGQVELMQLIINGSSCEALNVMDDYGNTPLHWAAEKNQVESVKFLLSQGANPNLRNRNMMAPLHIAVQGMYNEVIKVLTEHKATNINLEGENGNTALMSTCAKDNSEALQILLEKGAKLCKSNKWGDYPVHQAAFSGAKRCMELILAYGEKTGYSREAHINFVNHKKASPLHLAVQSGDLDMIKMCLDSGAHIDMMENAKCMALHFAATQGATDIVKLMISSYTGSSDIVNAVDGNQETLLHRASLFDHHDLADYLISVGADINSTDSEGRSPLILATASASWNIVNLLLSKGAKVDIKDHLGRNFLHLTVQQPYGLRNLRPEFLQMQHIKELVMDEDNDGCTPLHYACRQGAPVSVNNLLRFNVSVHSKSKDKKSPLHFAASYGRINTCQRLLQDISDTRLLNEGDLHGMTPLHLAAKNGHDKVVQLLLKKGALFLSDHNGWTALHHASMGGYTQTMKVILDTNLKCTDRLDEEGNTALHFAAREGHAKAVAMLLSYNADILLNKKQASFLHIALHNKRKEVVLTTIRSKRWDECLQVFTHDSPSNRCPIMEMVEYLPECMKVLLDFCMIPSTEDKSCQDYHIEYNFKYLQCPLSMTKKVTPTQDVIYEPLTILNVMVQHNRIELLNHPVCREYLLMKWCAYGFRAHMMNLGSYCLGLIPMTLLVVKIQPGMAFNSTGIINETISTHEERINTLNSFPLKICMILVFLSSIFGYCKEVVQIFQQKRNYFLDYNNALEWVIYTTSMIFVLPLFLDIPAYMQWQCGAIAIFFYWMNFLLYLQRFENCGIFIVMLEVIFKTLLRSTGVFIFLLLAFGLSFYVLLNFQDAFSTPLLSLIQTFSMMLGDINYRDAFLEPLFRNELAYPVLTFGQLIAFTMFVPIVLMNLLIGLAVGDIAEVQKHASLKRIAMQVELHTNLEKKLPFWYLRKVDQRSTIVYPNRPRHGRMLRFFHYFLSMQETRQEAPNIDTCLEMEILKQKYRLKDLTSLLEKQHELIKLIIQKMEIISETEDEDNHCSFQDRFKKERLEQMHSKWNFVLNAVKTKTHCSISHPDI

CC(=C\c1ccc(Cl)cc1)/C(C)=N/O [AP18]
AITC-induced CGRP release in the presence of AP18 (TRPA1; 50 μmol/L AP18, 100 μmol/L AITC, dorsal homogenate): 8 ± 5 % of 40 mmol/L KCl‐evoked release
cinnamaldehyde-evoked CGRP release in the presence of AP18 (TRPA1; 50 μmol/L AP18, 100 μmol/L cinnamaldehyde, dorsal homogenate): −1 ± 3 % of 40 mmol/L KCl‐evoked release
effect on CGRP release induced by 40 mmol/L and 60 mmol/L KCl (spinal cord synaptosomes; 50 μmol/L AP18): no effect

ω‐conotoxin MVIIC
depolarization-induced CGRP release in the presence of inhibitor [1]: 73 ± 8 % of control 40 mmol/L KCl‐evoked release
effect on 100 μmol/L cinnamaldehyde-induced CGRP release [2]: not significantly altered; also recorded: not significantly affected

C=CCN=C=S [AITC, allyl‐isothiocyanate]
AITC-induced CGRP release (TRPA1): 42 ± 11 % of 40 mmol/L KCl‐evoked release

[Cl-].[K+] [KCl]
CGRP release evoked by 40 mmol/L KCl, absence of morphine (spinal cord synaptosomes; 40 mmol/L KCl, dorsal homogenate, morphine experiment, n = 4): 77 ± 7 % over basal release
CGRP release over basal release (spinal cord synaptosomes; 40 mmol/L KCl, dorsal spinal cord homogenate, dorsal/ventral experiment): 67 ± 9 % over basal release
CGRP release over basal release (spinal cord synaptosomes; 40 mmol/L KCl, ventral spinal cord homogenate): 6 ± 4 % over basal release
CGRP release evoked by 60 mmol/L KCl, absence of morphine (spinal cord synaptosomes; 60 mmol/L KCl, dorsal homogenate, morphine experiment, n = 4): 131 ± 17 % over basal release

O=C/C=C/c1ccccc1 [cinnamaldehyde]
cinnamaldehyde-evoked CGRP release (TRPA1; 100 μmol/L cinnamaldehyde, dorsal homogenate, absence of AP18): 39 ± 8 % of 40 mmol/L KCl‐evoked release
CGRP release over basal release (TRPA1; 100 μmol/L cinnamaldehyde, dorsal spinal cord homogenate, n = 3): 14 ± 5 % over basal release
CGRP release over basal release (TRPA1; 100 μmol/L cinnamaldehyde, ventral spinal cord homogenate, n = 3): 0 ± 1 % over basal release
response to 1000 μmol/L cinnamaldehyde in Ca2+ free solutions as % of the response in Ca2+ containing solutions (TRPA1; 1000 μmol/L, Ca2+ free, 1 mmol/L EGTA, mean ± SEM, n = 3): 18 ± 6%
EC50 (TRPA1; EC50 of CGRP release, rat spinal cord homogenate, ELISA, mean ± SEM): 54.8 ± 5.84 µM

COC(=O)C1=C(C)NC(C)=C(C(=O)OC)C1c1ccccc1[N+](=O)[O-] [nifedipine]
EC50 ([3]; ref Fajardo et al. 2008, read-out: EC50 for activation of recombinantly-expressed TRPA1 channels): ~0.4 µM
EC50 (TRPM3): ~30 µM

COCC(=O)O[C@]1(CCN(C)CCCc2nc3ccccc3[nH]2)CCc2cc(F)ccc2[C@@H]1C(C)C [mibefradil dihydrochloride]
decrease of high potassium-induced CGRP release ([1]; 40 mmol/L KCl, mibefradil dihydrochloride 10 μmol/L, cocktail): ~ 50%
effect on 40 mmol/L KCl-induced CGRP release ([1]; nifedipine 5 μmol/L, ω‐conotoxin MVIIC 200 nmol/L, mibefradil dihydrochloride 10 μmol/L, cocktail): significantly decreased
depolarization-induced CGRP release in the presence of inhibitor ([1]; ω‐conotoxin MVIIC 1 μmol/L, mibefradil dihydrochloride 10 μmol/L, cocktail (5 μmol/L nifedipine, 1 μmol/L ω‐conotoxin MVIIC, 10 μmol/L mibefradil)): 48 ± 6 % of control 40 mmol/L KCl‐evoked release
effect on 100 μmol/L cinnamaldehyde-induced CGRP release ([2]; nifedipine 5 μmol/L, mibefradil dihydrochloride 10 μmol/L, ω‐conotoxin MVIIC 200 nmol/L, ANOVA): not significantly altered; also recorded: not significantly affected
greater affinity for T-type VGCCs than for L-type VGCC (T‐type VGCCs): 12–13 fold

CCCCCC(O)/C=C/C=O (stereo not shown) [4‐HNE, 4‐hydroxynonenal]
EC50 (TRPA1; read-out: EC50 of CGRP release): 17.4 ± 0.68 µM

CCCCCC(=O)C=CC=O [4‐ONE, 4‐oxo‐2‐nonenal]
EC50 (TRPA1; rat spinal cord homogenate, ELISA, mean ± SEM, read-out: EC50 of CGRP release): 63.8 µM and ~64 µM
EC50 ([3]; ref Taylor‐Clark et al. 2008, read-out: previously reported EC50 value): ~2 µM

Source: article PMC4777244, “Activation of transient receptor potential ankyrin 1 induces CGRP release from spinal cord synaptosomes” (Pharmacology Research & Perspectives, 2015)
